# System: HL-60 cells
# Experiment: Cell cycle analysis (propidium iodide, flow cytometry)
# Assay type: cell-based, human
# Conditions: 80 µM, 48 h
# Protocol: To establish how compounds 1 and 2 influence the cell cycle and cell death, the HL-60 human promyelocytic leukemia cell line was used. The results are outlined in the Figure 7 and Figure 8, respectively. […] This led to disturbances in the cell cycle progression, expressed as a significant decrease in G0/G1 and S phase, compared to the untreated control (Figure 7).
# Cultured HL-60 cells (human acute promyelocytic leukemia) were seeded at a density of 2 × 10^5 cells/mL of culture medium on 24-well plates (Corning, NY, USA) to a final volume of 2 mL. […] The stock solutions of platinum derivatives were prepared as described above.
# After 48 h of incubation, the cells were collected and washed in phosphate-buffered saline (PBS; HIIET, Wroclaw, Poland) supplemented with 2% of fetal bovine serum and counted in a hemocytometer. Then, the cells (1 × 10^6 per sample) were washed twice in cold PBS and fixed for 24 h in 70% ethanol at −20 °C. Following this, the cells were washed twice in PBS and incubated with RNAse (8 μg/mL, Fermentas GmbH, St. Leon-Rot, Germany) at 37 °C for 1 h. Finally, the cells were stained for 30 min with propidium iodide (0.5 mg/mL; Sigma-Aldrich, Steinheim, Germany) at 4 °C and the cellular DNA content was determined using a BD LSR Fortessa instrument (Becton Dickinson, San Jose, CA, USA) and WinMDI 2.8 software. The experiment was repeated at least three times.
structure (smiles),measurement,value
"Cn1cc([N+](=O)[O-])c[n+]1[Pt@SP2-2]([Cl])([Cl])[n+]1cc([N+](=O)[O-])cn1C [Compound 1, cis-dichloridobis(1-methyl-4-nitropyrazole)platinum(II)]",cell death (Sub-G1) and cell cycle progression of HL-60 cells,induced cell death (Sub-G1)
